Data reported in article PMC11976424 (Journal of Advanced Research, 2024).
pKd: −log10 of the molar value.

Assays:
[1] = molecular target: AMPKα2β1γ1 (AMP-activated protein kinase) (Homo sapiens, UniProt P54619+P54646+Q9Y478); assay: SPR; type: binding
[2] = molecular target: AMPKα1β1γ1 (AMP-activated protein kinase) (Homo sapiens, UniProt Q13131); assay: SPR; type: binding
Chain of AMPKα1β1γ1 (AMP-activated protein kinase) (Q13131 whole entry): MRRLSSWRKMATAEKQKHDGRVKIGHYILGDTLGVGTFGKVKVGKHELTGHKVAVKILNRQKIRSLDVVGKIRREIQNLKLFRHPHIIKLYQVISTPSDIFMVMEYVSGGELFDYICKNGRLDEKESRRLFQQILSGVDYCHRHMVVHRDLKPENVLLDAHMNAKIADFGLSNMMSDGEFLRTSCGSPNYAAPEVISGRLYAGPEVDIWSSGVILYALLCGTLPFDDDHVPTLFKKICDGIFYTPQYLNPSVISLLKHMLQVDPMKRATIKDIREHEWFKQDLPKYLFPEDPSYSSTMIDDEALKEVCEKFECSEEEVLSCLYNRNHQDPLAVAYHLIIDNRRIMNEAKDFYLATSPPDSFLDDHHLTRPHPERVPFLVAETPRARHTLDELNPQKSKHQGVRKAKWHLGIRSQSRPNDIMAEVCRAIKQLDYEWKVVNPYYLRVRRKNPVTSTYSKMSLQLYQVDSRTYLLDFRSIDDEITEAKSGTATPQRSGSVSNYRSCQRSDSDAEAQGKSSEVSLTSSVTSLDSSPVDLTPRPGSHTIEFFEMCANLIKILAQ
Chain of AMPKα1β1γ1 (AMP-activated protein kinase) (Q9Y478 2-270 partner): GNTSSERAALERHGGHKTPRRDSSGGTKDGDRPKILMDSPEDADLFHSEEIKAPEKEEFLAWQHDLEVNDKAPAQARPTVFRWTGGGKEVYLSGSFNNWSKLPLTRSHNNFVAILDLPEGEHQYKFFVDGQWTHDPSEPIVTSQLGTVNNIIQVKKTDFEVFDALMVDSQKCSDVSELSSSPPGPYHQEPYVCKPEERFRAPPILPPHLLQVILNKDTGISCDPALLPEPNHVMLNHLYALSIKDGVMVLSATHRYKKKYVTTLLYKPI
Chain of AMPKα1β1γ1 (AMP-activated protein kinase) (P54619 whole entry partner): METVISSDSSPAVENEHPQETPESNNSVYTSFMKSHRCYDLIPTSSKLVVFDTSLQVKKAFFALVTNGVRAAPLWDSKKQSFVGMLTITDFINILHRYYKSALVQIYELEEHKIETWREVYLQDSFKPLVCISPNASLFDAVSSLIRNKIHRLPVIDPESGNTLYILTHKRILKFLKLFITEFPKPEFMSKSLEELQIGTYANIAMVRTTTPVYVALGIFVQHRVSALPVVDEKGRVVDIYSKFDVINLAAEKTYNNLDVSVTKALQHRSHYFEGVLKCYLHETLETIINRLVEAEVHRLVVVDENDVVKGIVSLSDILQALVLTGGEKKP

Chain of AMPKα2β1γ1 (AMP-activated protein kinase) (P54646 whole entry): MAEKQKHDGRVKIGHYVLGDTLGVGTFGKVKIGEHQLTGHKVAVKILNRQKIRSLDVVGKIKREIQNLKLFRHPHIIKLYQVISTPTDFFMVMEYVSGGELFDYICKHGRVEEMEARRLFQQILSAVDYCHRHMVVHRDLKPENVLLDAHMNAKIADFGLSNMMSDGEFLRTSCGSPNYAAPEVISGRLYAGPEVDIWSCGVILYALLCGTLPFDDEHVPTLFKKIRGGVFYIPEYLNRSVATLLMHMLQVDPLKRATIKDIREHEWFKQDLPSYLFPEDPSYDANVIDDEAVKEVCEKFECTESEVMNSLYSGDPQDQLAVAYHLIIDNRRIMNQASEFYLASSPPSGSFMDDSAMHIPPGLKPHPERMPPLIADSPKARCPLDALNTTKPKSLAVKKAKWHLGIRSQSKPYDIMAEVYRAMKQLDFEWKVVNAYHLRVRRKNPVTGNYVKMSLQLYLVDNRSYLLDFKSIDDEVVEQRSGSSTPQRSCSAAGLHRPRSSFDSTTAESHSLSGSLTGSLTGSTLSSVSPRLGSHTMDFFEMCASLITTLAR
Chain of AMPKα2β1γ1 (AMP-activated protein kinase) (Q9Y478 2-270 partner): as the sequence (Q9Y478 2-270 partner) above
Chain of AMPKα2β1γ1 (AMP-activated protein kinase) (P54619 whole entry partner): as the sequence (P54619 whole entry partner) above

Compound `OC[C@H]1O[C@@H](Oc2c(O)cc(O)cc2/C=C/c2ccc(O)cc2)[C@H](O)[C@@H](O)[C@@H]1O` [TSG, 2,3,5,4′-tetrahydroxystilbene-2-O-β-D-glucoside] has a pKd [1] of 5.33 and a pKd [2] of 5.42.
